“Also recorded” adds a separate entry of the source.
Tests used:
[1] = Hydrophobicity and solubility remark from peptide synthesis; format: physicochemical; details: likely reason why the 15-mer could not be productively synthetized
AD patients [2] = details: phase 3 studies released summer 2012; 10 (bapineuzumab), 11 (solanezumab); cited from earlier work
Aβ-specific antibodies [3] = assay: Anti-Aβ antibody ELISA, HLA-A2.1/HLA-DR1 mice; format: in vivo, mouse; details: Aβ1-42-coated plates, relative OD
Protocol: (§1) To measure serum anti-Aβ antibody titers in immunized mice, flat-bottom Nunc MaxiSorp ELISA plates were coated overnight at 4 °C with Aβ1-42 peptide (1 μg/ml in 0.1 M NaHCO3, pH 8.3). Plates were then washed twice with PBS-T and blocked with PBS-1 % BSA for 2 h at room temperature (RT). After two washes, plates were incubated for 2 h at RT with serum samples at various dilutions in blocking buffer. The Aβ1-17-specific mAb 6E10 (0.01 and 1 μg/ml) (Sigma-Aldrich, St Quentin Fallavier, France) was used as a positive internal reference sample. […] Results were expressed as relative OD = Experimental OD/Reference OD for 6E10 mAb in the same plate.

Aβ-specific antibodies [4] = assay: Anti-Aβ antibody ELISA, C57BL/6 mice; format: in vivo, mouse
Protocol: as §1

AD patients [5] = details: cited from earlier work
Excerpt: (§2) Alzheimer’s disease (AD) is a severe neurodegenerative disorder characterized by progressive loss of memory and cognitive functions. Accumulation of amyloid-β peptide (Aβ), both as soluble oligomers and in the form of amyloid plaques, plays a key role in initiating the pathogenic cascade in AD. […] In line with ...

animal models of AD = details: vaccination; cited from earlier work
Excerpt: as §2

[6] = test system: IFNγ-secreting splenocytes; details: HLA-A2.1/HLA-DR1 mice, Aβ/CpG/IFA; dendritic cells loaded with Aβ or overlapping nonamer peptides; data not shown
[7] = test system: IFNγ-secreting splenocytes; assay: IFNγ ELISPOT, splenocytes of immunized C57BL/6 mice; format: in vivo, mouse
1C11 neuronal cells = assay: IFNγ ELISPOT, restimulation with 1C11 neuronal cells; details: inferred from 1C11 cells and APPPS1 CD11b^+ microglia
Protocol: Nitrocellulose-based 96-well plates (Millipore, Billerica, MA, USA) were coated with anti-mouse IFN-γ capture mAb (1 μg/ml; clone R4-6A2, BD Biosciences) and saturated with complete culture medium. Responder splenocytes from individual mice were seeded at 10^6 or 5 × 10^5 cells/wells and cultured with medium alone or containing 10 μg/ml of peptide. In some experiments, splenocytes were stimulated with CD11b^+ microglia (3 × 10^4/wells) isolated from the brain of WT or APPPS1 mice, or with mitomycin-treated 1C11 cells (2 × 10^4/wells), a neuronal cell line expressing both APP and H-2^b MHC-I but not MHC-II molecules [25, 26]. Plates were incubated at 37 °C in 5 % CO2 for 18 h, washed, and incubated with biotinylated anti-mouse IFNγ detection mAb (0.5 μ/ml; clone XMG1.2, BD Biosciences). Alkaline phosphatase conjugated to streptavidin (Roche, France) (1/500 dilution, 100 μL/well) was then added. IFNγ-secreting cells were visualized using TNB/BCIP substrate (Promega, Charbonnières, France), and spots were counted using an automatic ELISPOT plate reader. Samples were assayed in triplicate, and the frequency of peptide-specific T cells was calculated after subtracting the mean number of spots obtained in the absence of peptide or cells.

Aβ28-42: 15-mer candidate peptide, could not be productively synthetized (KGAIIGLMVGGVVIA; Amyloid-beta protein 42; UniProt P05067 699-713, looked up, fragment)
hydrophobicity [1]: very high hydrophobicity
solubility [1]: poor solubility

solanezumab: humanized anti-Aβ monoclonal antibody
improvement of cognitive performance (AD patients [2]): inefficient at improving cognitive performance

Aβ1-42: Human Aβ1-42 peptide
Aβ-specific antibodies in serum (Aβ-specific antibodies [3]): Aβ-specific antibodies were detected
anti-Aβ antibody isotypes (Aβ-specific antibodies [4]): predominantly of IgG1 and IgG2b isotypes
beneficial effects in AD patients (AD patients [5]; AN1792): modest beneficial effects
patients developing meningoencephalitis (AD patients [5]; human, in vivo): 6%
benefit in animal models of AD (animal models of AD): of benefit in animal models of AD
CD8^+ T cell response [6]: did not trigger any CD8^+ T cells able to recognize dendritic cells loaded with either Aβ or overlapping nonamer peptides

GLMVGGVVI [Aβ33-41]
restimulation of Aβ33-41NP-specific CD8^+ T cells by exogenously loaded native peptide [7]: could not restimulate Aβ33-41NP-specific CD8^+ T cells when loaded exogenously
natural processing and presentation by microglia and neuronal cells (1C11 neuronal cells): can be naturally processed and presented in both microglia and neuronal cells; also recorded: appears to be naturally processed and presented to immune effectors
